Experimental data published in publication PMC8846325, “A Photoactivable Natural Product with Broad Antiviral Activity against Enveloped Viruses, Including Highly Pathogenic Coronaviruses” (Antimicrobial Agents and Chemotherapy, 2022).
Where two headings read alike, the source gives them in different places.

Experiments:
Format in all cases: cell-based
HCoV-229E [1] = assay: HCoV-229E-Luc infection inhibition luciferase assay; details: for antiviral activity against HCoV-229E-Luc, screening of related compounds: Huh-7 cells, 1, 5, 10 µM, light exposure; for light dependence of antiviral effect: HCoV-229E, light versus dark
[2] = MTS cell toxicity assay, Huh-7 cells; details: human, Huh-7 cells, 24 h, light exposure; read-out: CC50 (μM) 24 h
Description: (§1) A total of 6 × 10^4 Huh-7, Vero-E6, and Vero-81 cells were seeded in 96-well plates and incubated for 16 h at 37°C in a 5% CO2 incubator. The cells were then treated with increasing concentrations of the compound of interest. One hour after inoculation, cells were taken out of the incubator to be exposed to the white light of a biosafety cabinet (BSC) for 10 min, after which cells were further incubated in the dark at 37°C and 5% CO2 for 23 h. The BSC’s light source lamp consists of one fluorescent tube of 36 W, 3,350 lumen, white light. An MTS [3-(4,5-dimethylthiazol-2-yl)-5-(3-carboxymethoxyphenyl)-2-(4-sulfophenyl)-2H-tetrazolium]-based viability assay (Cell Titer 96 aqueous nonradioactive cell proliferation assay; Promega) was performed as recommended by the manufacturer. The absorbance of formazan at 490 nm was detected using a plate reader (ELX 808 Bio-Tek Instruments Inc.). Each measure was performed in triplicate, and each experiment was repeated at least 3 times.
(§2) 6×104 Huh-7, Vero-E6 and Vero-81 cells were seeded in 96-well plates and incubated for 16 h at 37 °C 5% CO2 incubator. The cells were then treated with increasing concentrations of the compound of interest. One hour after inoculation, cells were either left in the incubator (dark condition) or taken out to be exposed to the white light of the biosafety cabinet (BSC) for 10 min (light condition), after which cells were further incubated in the dark at 37 °C 5% CO2 for 23 h. BSC’s light source lamp consists of one fluorescent tube of 36W, 3350 lumen white light. An MTS [3-(4,5-dimethylthiazol-2-yl)-5-(3-carboxymethoxyphenyl)-2-(4-sulfophenyl)- 2H-tetrazolium]-based viability assay (Cell Titer 96 Aqueous non-radioactive cell proliferation assay, Promega) was performed as recommended by the manufacturer. The absorbance of formazan at 490 nm was detected using a plate reader (ELX 808 Bio-Tek […]
(§3) Instruments Inc). […]

Huh-7 cells = assay: MTS cell toxicity assay, Huh-7 cells; details: for CC50: Huh-7 cells, 24 h, light exposure
Description: as §1, §2, §3

SARS-CoV-2 = tested on: SARS-CoV-2
HCoV-229E [3] = assay: Quencher assay (singlet oxygen quenchers)
[4] = against HCoV-229E, Huh-7 cells, normal white light exposure, read-out: IC50

SMILES | antiviral activity against HCoV-229E-Luc, screening of related compounds (HCoV-229E [1]) | light dependence of antiviral effect (HCoV-229E [1]) | CC50 (Huh-7 cells) | IC50 (HCoV-229E [1]; [4]) | further results
C1=Cc2nc1cc1ccc([nH]1)c(-c1ccccc1)c1nc(cc3ccc([nH]3)c2-c2ccccc2)C=C1 [5,15-DPP] | not active at the tested concentrations | – | – | – | –
Oc1cccc(-c2c3nc(c(-c4cccc(O)c4)c4ccc([nH]4)c(-c4cccc(O)c4)c4nc(c(-c5cccc(O)c5)c5ccc2[nH]5)CC4)C=C3)c1 [temoporfin] | moderate antiviral activity | – | – | – | –
C=Cc1c(C)c2cc3nc(c4c5[nH]c(cc6nc(cc1[nH]2)C(C)=C6CC)c(C)c5C(=O)C4)[C@@H](CCC(=O)O)[C@@H]3C [PyroPba, pyropheophorbide a] | – | light-dependent antiviral effect | – | – | CC50 at 24 h [2]: 2.67 µM; toxicity on Huh-7 cells, screening of related compounds (Huh-7 cells; 5, 10, and 25 µM, light): toxic at tested concentrations; IC50 (HCoV-229E [1]; Human coronavirus 229E, Huh-7): 350 nM
C=CC1=C(C)c2cc3[n-]c(cc4[n-]c(cc5nc(cc1n2)C(C)=C5C=C)c(C)c4CCC(=O)O)c(CCC(=O)O)c3C.[Zn+2] [Zn protoporphyrin IX, Zn-protoporphyrin IX] | – | light-dependent antiviral effect | 16.6 µM | 790 nM | –
CCC1=C(C)c2cc3[nH]c(cc4nc(cc5c(CCC(=O)O)c(C)c(cc1n2)n5C)C(CCC(=O)O)=C4C)c(C)c3CC [N-Methyl mesoporphyrin IX, N-methyl mesoporphyrin IX] | – | light-dependent antiviral effect | > 80 µM | 1250 nM | antiviral activity under dark conditions (HCoV-229E [1]; Huh-7 cells, dark): showed antiviral activity under dark conditions
CCN(CC)CCCC(C)Nc1ccnc2cc(Cl)ccc12 (stereo not drawn) [chloroquine, reference compound] | – | – | – | – | infectivity relative to normal levels, compound added more than 2 h after inoculation (SARS-CoV-2): around 60%
[N-]=[N+]=[N-].[Na+] [NaN3] | – | – | – | – | effect of quencher on antiviral action of Pba (HCoV-229E [3]): able to reduce the action of Pba
O=C1OC2(c3cc(I)c(O)c(I)c3Oc3c2cc(I)c(O)c3I)c2c(Cl)c(Cl)c(Cl)c(Cl)c21 [Rose Bengale] | moderate antiviral activity | – | > 80 µM | 2860 nM | –
